In patent publication US10513521B2, “Compositions and methods for inhibiting BMP” (The Brigham and Women's Hospital, Inc., priority 2014, dated 2019):
pIC50: −log10 of the molar value.

Tests used:
ALK6 = ALK6 (Homo sapiens, UniProt O00238); assay: TR-FRET enzymatic ALK kinase assay, ALK6
Experimental: (§1) Briefly, the ALKs enzymatic assay was initiated by dispense 2.5 μl enzyme in 1× kinase reaction buffer. The assay plate was then added with compounds followed by incubation at room temperature for 10 minutes. Then 2.5 μl/well substrate was added.

ALK4 = target: T1, ALK4 (Homo sapiens, UniProt P36896); assay: TR-FRET enzymatic ALK kinase assay, ALK4
T1 sequence (P36896 24-505): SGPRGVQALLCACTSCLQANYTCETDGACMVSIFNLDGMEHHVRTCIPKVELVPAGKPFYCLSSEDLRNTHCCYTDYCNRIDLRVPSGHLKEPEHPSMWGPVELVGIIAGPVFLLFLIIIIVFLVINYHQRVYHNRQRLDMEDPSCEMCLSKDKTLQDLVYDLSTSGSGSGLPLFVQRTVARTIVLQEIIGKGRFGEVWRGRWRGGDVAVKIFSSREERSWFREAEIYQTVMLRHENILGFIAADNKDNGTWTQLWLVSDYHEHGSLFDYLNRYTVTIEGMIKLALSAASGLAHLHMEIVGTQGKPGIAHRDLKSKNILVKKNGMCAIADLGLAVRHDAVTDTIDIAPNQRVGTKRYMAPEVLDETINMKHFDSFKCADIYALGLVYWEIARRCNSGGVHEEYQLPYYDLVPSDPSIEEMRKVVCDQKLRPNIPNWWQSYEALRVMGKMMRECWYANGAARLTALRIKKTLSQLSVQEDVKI
Experimental: as §1

ALK3 = ALK3 (Homo sapiens, UniProt P36894); assay: TR-FRET enzymatic ALK kinase assay, ALK3
Experimental: as §1

ALK5 = target: T2, ALK5 (Homo sapiens, UniProt P36897); assay: TR-FRET enzymatic ALK kinase assay, ALK5
T2 sequence (P36897 34-503): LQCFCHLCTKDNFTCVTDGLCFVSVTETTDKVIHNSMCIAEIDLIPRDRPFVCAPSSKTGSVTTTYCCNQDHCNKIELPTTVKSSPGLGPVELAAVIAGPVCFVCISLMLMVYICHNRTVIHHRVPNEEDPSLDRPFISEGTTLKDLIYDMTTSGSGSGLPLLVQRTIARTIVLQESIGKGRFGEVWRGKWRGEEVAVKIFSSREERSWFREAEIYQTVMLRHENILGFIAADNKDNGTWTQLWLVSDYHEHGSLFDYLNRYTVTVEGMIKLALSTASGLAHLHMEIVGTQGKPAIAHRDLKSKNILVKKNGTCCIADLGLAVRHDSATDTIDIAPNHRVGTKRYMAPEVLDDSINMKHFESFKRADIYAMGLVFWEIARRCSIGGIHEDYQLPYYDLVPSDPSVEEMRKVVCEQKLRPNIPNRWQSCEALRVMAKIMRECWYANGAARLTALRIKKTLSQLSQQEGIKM
Experimental: Six ALK kinase enzyme assays were developed for determination of compound activities on ALK1, ALK2, ALK3, ALK4, ALK5 and ALK6.
as §1

ALK1 = ALK1 (Homo sapiens, UniProt P37023); assay: TR-FRET enzymatic ALK kinase assay, ALK1
Experimental: as §1

ALK2 = target: T3, ALK2 (Homo sapiens, UniProt Q04771); assay: TR-FRET enzymatic ALK kinase assay, ALK2
T3 sequence (Q04771 21-509): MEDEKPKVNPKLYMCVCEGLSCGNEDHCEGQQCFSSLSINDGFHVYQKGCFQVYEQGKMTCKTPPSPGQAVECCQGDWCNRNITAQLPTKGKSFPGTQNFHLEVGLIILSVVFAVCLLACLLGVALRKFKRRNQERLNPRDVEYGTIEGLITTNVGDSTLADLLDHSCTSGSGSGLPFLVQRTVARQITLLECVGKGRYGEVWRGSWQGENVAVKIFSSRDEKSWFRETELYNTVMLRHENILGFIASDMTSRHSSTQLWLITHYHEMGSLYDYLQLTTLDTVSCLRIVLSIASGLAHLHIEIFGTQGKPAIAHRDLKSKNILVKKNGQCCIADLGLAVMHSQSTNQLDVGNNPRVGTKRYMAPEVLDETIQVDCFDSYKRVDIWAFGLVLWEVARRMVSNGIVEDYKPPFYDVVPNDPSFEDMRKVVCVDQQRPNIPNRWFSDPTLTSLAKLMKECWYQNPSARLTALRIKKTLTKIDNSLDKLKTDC
Experimental: as §1

Chain of ALK3 (P36894 24-532): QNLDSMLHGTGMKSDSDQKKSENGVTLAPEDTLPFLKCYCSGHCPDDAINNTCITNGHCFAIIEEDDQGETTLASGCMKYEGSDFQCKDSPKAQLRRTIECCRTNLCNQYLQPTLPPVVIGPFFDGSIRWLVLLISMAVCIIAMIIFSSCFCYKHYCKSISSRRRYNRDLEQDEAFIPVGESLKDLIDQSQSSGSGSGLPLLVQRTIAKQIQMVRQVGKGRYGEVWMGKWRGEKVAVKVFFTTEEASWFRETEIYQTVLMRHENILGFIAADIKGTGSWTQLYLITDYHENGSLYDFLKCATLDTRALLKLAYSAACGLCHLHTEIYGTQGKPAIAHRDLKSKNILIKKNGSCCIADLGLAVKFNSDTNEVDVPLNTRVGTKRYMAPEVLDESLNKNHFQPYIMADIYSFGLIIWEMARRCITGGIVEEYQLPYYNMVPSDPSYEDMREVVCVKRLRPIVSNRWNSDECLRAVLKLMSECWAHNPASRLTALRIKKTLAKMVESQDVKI
Chain of ALK6 (O00238 14-502): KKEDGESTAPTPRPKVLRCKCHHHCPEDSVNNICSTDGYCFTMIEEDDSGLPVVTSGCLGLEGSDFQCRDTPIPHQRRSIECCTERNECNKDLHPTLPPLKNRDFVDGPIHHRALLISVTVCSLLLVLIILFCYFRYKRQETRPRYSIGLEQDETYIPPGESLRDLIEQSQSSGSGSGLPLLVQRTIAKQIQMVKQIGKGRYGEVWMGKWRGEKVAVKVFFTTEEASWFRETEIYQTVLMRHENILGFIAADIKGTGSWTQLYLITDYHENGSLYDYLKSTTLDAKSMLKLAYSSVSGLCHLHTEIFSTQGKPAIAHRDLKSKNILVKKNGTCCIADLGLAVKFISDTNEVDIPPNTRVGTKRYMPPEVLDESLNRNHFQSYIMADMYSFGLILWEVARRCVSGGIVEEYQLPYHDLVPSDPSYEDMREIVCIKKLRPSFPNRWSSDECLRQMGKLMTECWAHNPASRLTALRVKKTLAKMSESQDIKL
Chain of ALK1 (P37023 22-503): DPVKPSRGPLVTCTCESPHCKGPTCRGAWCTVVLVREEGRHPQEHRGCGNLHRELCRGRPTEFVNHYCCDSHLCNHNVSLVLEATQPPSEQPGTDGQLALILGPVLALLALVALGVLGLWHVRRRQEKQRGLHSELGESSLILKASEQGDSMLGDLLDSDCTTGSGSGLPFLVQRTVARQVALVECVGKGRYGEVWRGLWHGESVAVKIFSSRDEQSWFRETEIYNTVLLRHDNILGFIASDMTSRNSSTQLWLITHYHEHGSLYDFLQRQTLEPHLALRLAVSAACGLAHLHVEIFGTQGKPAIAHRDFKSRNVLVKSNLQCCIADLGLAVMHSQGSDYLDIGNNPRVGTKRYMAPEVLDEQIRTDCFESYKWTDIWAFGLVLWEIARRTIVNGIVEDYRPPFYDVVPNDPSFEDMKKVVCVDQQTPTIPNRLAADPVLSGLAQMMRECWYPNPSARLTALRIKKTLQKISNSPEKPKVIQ

| SMILES | pIC50 (ALK6) | pIC50 (ALK4) | pIC50 (ALK3) | pIC50 (ALK5) | pIC50 (ALK1) | pIC50 (ALK2) |
| --- | --- | --- | --- | --- | --- | --- |
| NC(c1ccc(-c2cnn3cc(-c4ccc(OCCN5CCCCC5)cc4)cnc23)cc1)C(F)(F)F (stereo not drawn) [Compound 144, 2,2,2-trifluoro-1-(4-(6-(4-(2-(piperidin-1-yl)ethoxy)phenyl)pyrazolo[1,5-a]pyrimidin-3-yl)phenyl)ethanamine] | < 5.00 | < 5.00 | < 5.00 | < 5.00 | < 5.00 | < 5.00 |
| CC(O)c1cccc(-c2cnn3cc(-c4ccc(OCCN5CCCC5)cc4)cnc23)c1 (stereo not drawn) [Compound 145, 1-(3-(6-(4-(2-(pyrrolidin-1-yl)ethoxy)phenyl)pyrazolo[1,5-a]pyrimidin-3-yl)phenyl)ethanol] | < 5.00 | < 5.00 | 5.59 | < 5.00 | 6.00 | 7.20 |
| CC(O)c1cccc(-c2cnn3cc(-c4ccc(CCN5CCCC5)cc4)cnc23)c1 (stereo not drawn) [Compound 146, 1-(3-(6-(4-(2-(pyrrolidin-1-yl)ethyl)phenyl)pyrazolo[1,5-a]pyrimidin-3-yl)phenyl)ethanol] | < 5.00 | < 5.00 | 5.10 | < 5.00 | 5.85 | 6.66 |
| CC(O)c1cccc(-c2cnn3cc(-c4ccc(CCN5CCOCC5)cc4)cnc23)c1 (stereo not drawn) [Compound 147, 1-(3-(6-(4-(2-morpholinoethyl)phenyl)pyrazolo[1,5-a]pyrimidin-3-yl)phenyl)ethanol] | < 5.00 | < 5.00 | < 5.00 | < 5.00 | 6.33 | 6.77 |
| CC(O)c1cccc(-c2cnn3cc(-c4ccc(CCN5CCC(O)C5)cc4)cnc23)c1 (stereo not drawn) [Compound 148, 1-(4-(3-(3-(1-hydroxyethyl)phenyl)pyrazolo[1,5-a]pyrimidin-6-yl)phenethyl)pyrrolidin-3-ol] | < 5.00 | < 5.00 | 5.19 | < 5.00 | 6.10 | 6.82 |
| C[C@@H](O)c1cccc(-c2cnn3cc(-c4ccc(OCCN5CCCCC5)cc4)cnc23)c1 [Compound 149, (R)-1-(3-(6-(4-(2-(piperidin-1-yl)ethoxy)phenyl)pyrazolo[1,5-a]pyrimidin-3-yl)phenyl)ethanol] | < 5.00 | < 5.00 | 5.17 | < 5.00 | 5.35 | 6.74 |
| CC(O)c1cccc(-c2cnn3cc(-c4ccc(CCN5CCCC(O)C5)cc4)cnc23)c1 (stereo not drawn) [Compound 150, 1-(4-(3-(3-(1-hydroxyethyl)phenyl)pyrazolo[1,5-a]pyrimidin-6-yl)phenethyl)piperidin-3-ol] | < 5.00 | < 5.00 | 5.39 | < 5.00 | 6.15 | 6.85 |
| CC(O)c1cccc(-c2cnn3cc(-c4ccc(CCN5CCC(O)CC5)cc4)cnc23)c1 (stereo not drawn) [Compound 151, 1-(4-(3-(3-(1-hydroxyethyl)phenyl)pyrazolo[1,5-a]pyrimidin-6-yl)phenethyl)piperidin-4-ol] | < 5.00 | < 5.00 | 5.37 | < 5.00 | 6.09 | 6.96 |
| NC(c1cccc(-c2cnn3cc(-c4ccc(OCCN5CCCCC5)cc4)cnc23)c1)C(F)(F)F (stereo not drawn) [Compound 153, 2,2,2-trifluoro-1-(3-(6-(4-(2-(piperidin-1-yl)ethoxy)phenyl)pyrazolo[1,5-a]pyrimidin-3-yl)phenyl)ethanamine] | < 5.00 | < 5.00 | 5.37 | < 5.00 | 5.85 | 6.96 |
| C[C@@H](O)c1cccc(-c2cnn3cc(-c4ccc(CCN5CCC(O)C5)cc4)cnc23)c1 (stereo partly drawn) [Compound 155, 1-(4-(3-(3-((R)-1-hydroxyethyl)phenyl)pyrazolo[1,5-a]pyrimidin-6-yl)phenethyl)pyrrolidin-3-ol] | < 5.00 | < 5.00 | 5.14 | < 5.00 | 6.09 | 6.85 |
| C[C@@H](O)c1cccc(-c2cnn3cc(-c4ccc(CCN5CCCC5)cc4)cnc23)c1 [Compound 156, (R)-1-(3-(6-(4-(2-(pyrrolidin-1-yl)ethyl)phenyl)pyrazolo[1,5-a]pyrimidin-3-yl)phenyl)ethanol] | < 5.00 | < 5.00 | 5.21 | < 5.00 | 6.08 | 6.80 |
| C[C@@H](O)c1cccc(-c2cnn3cc(-c4ccc(CCN5CCCC(O)C5)cc4)cnc23)c1 (stereo partly drawn) [Compound 157] | < 5.00 | < 5.00 | 5.23 | < 5.00 | 6.12 | 6.92 |
| C[C@@H](O)c1cccc(-c2cnn3cc(-c4ccc(CCN5CCOCC5)cc4)cnc23)c1 [Compound 158, (R)-1-(3-(6-(4-(2-morpholinoethyl)phenyl)pyrazolo[1,5-a]pyrimidin-3-yl)phenyl)ethanol] | < 5.00 | < 5.00 | < 5.00 | < 5.00 | 5.60 | 6.60 |
| C[C@@H](O)c1cccc(-c2cnn3cc(-c4ccc(CCN5CCC(O)CC5)cc4)cnc23)c1 [Compound 159, (R)-1-(4-(3-(3-(1-hydroxyethyl)phenyl)pyrazolo[1,5-a]pyrimidin-6-yl)phenethyl)piperidin-4-ol] | < 5.00 | < 5.00 | 5.21 | < 5.00 | 6.00 | 6.74 |
| C[C@@H](O)c1cccc(-c2cnn3cc(-c4ccc(OCCN5CCCC5)cc4)cnc23)c1 [Compound 160, (R)-1-(3-(6-(4-(2-(pyrrolidin-1-yl)ethoxy)phenyl)pyrazolo[1,5-a]pyrimidin-3-yl)phenyl)ethanol] | < 5.00 | 5.05 | 5.48 | < 5.00 | 5.82 | 6.72 |
| NC(c1cccc(-c2cnn3cc(-c4ccc(OCCN5CCCC5)cc4)cnc23)c1)C(F)(F)F (stereo not drawn) [Compound 161] | < 5.00 | < 5.00 | 5.03 | < 5.00 | 5.80 | 6.82 |
| NC(c1ccc(-c2cnn3cc(-c4ccc(OCCN5CCCC5)cc4)cnc23)c2ccccc12)C(F)(F)F (stereo not drawn) [Compound 162, 2,2,2-trifluoro-1-(4-(6-(4-(2-(pyrrolidin-1-yl)ethoxy)phenyl)pyrazolo[1,5-a]pyrimidin-3-yl)naphthalen-1-yl)ethanamine] | < 5.00 | < 5.00 | < 5.00 | < 5.00 | < 5.00 | 5.09 |
| CC(O)c1cccc(-c2cnn3cc(-c4ccc(OC5(CN6CCNCC6)CC5)cc4)cnc23)c1 (stereo not drawn) [Compound 168, 1-(3-(6-(4-(1-(piperazin-1-ylmethyl)cyclopropoxy)phenyl)pyrazolo[1,5-a]pyrimidin-3-yl)phenyl)ethanol] | < 5.00 | < 5.00 | 5.77 | < 5.00 | 6.21 | 7.07 |
| CS(=O)(=O)c1cccc(-c2cnn3cc(-c4ccc(OC5(CN6CCNCC6)CC5)cc4)cnc23)c1 [Compound 169, 3-(3-(methylsulfonyl)phenyl)-6-(4-(1-(piperazin-1-ylmethyl)cyclopropoxy)phenyl)pyrazolo[1,5-a]pyrimidine] | 5.24 | < 5.00 | 5.82 | < 5.00 | 6.55 | 7.28 |
